The source of these data is US20260070945A1, “MACROCYCLIC IMMUNOMODULATORS” (Bristol-Myers Squibb Company, priority 2022, published 2026).

What is called IC50 is the concentration that gives 50% inhibition.

SMILES strings stand for the structures. Where a SMILES comes first, the peptide text is derived from it. Bridges are numbered along the chain shown (N, C = ends). [ ]: non-standard residue; d: D form. The star is where a group is joined. ξ: configuration not given here. Phe(4-COOH) = N[C@@H](Cc1ccc(C(=O)O)cc1)C(=O)O; Bip = N[C@@H](Cc1ccc(-c2ccccc2)cc1)C(=O)O; Phe(3-Me) = Cc1cccc(C[C@H](N)C(=O)O)c1; Cha = N[C@@H](CC1CCCCC1)C(=O)O; Cit = NC(=O)NCCC[C@H](N)C(=O)O; Thr(3ξ) = CC(O)[C@H](N)C(=O)O; hSer = N[C@@H](CCO)C(=O)O; Carboxymethyl = O=C(O)C*; NMeA = CN[C@@H](C)C(=O)O; Aun = NCCCCCCCCCCC(=O)O; Dab = NCC[C@H](N)C(=O)O; AEEA = NCCOCCOCC(=O)O

T1 sequence (Q15116 25-288): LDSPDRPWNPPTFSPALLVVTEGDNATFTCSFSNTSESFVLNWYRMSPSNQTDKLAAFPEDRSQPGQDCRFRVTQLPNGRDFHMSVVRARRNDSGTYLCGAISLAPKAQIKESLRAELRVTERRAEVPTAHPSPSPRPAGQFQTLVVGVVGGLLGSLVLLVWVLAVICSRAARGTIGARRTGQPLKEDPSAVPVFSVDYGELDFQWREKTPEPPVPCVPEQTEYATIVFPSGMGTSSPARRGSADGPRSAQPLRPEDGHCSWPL

The experiment has as its target T1, PD-1/PD-L1 interaction (PE-labeled human PD-L1-Ig binding to Jurkat cell line over-expressing human PD-1) (Homo sapiens, UniProt Q15116).
T1 construct: expressed in transfected cells; host or cells: Jurkat
Put plainly: Jurkat-PD-1 Cell Binding High-Content Screening Assay (CBA). To be noted: Jurkat-hPD-1 cells, PE-labeled PD-L1-Ig 20 nM final; read-out: Jurkat HPD1 PDL1 IC50. The method, boiled down:
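Jurkat-hPD-1 cells (8×10^3/well) in DMEM with 10% fetal calf serum were preincubated with compound for 2 h at 37 °C. PE-labeled PD-L1-Ig was then added at 20 nM final for 1 h. Cells were fixed in paraformaldehyde with Hoechst 33342, washed and imaged by high-content imaging.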
Regarding `Cc1cccc(C[C@@H]2NC(=O)[C@H](CC(=O)O)NC(=O)[C@H](Cc3ccc(OCC(=O)O)cc3)NC(=O)[C@H](C(C)O)NC(=O)CSC[C@@H](C(=O)N[C@H](CC(N)=O)C(=O)NCCCCCCCCCCC(=O)O)NC(=O)[C@H](C(C)O)NC(=O)[C@H](C(C)C)NC(=O)[C@H](CC3CCCCC3)NC(=O)[C@H](CCN)NC(=O)[C@@H](CC(C)C)NC(=O)[C@H](C)N(C)C(=O)[C@H](CCCNC(N)=O)NC(=O)[C@H](Cc3ccc(-c4ccccc4)cc3)NC(=O)[C@H](C(C)C)NC2=O)c1` (stereo partly drawn) [Example 2313] ({CH2CO}-[Thr(3ξ)]Y(Carboxymethyl)D[Phe(3-Me)]V[Bip][Cit][NMeA][dL][Dab][Cha]V[Thr(3ξ)]C[dN][Aun]-OH; thioether N-14), the IC50 came to 10.1 nM.

For the compound `Cc1cccc(C[C@@H]2NC(=O)[C@H](CC(=O)O)NC(=O)[C@H](Cc3ccc(OCC(=O)O)cc3)NC(=O)[C@H](C(C)O)NC(=O)CSC[C@@H](C(=O)N[C@H](CC(N)=O)C(=O)NCCCCCCCCCCC(=O)O)NC(=O)[C@H](C(C)O)NC(=O)[C@H](C(C)C)NC(=O)[C@H](CC3CCCCC3)NC(=O)[C@H](CCN)NC(=O)[C@@H](CC(C)C)NC(=O)[C@H](C)N(C)C(=O)[C@H](Cc3ccc(O)cc3)NC(=O)[C@H](Cc3ccc(-c4ccccc4)cc3)NC(=O)[C@H](Cc3ccc(O)cc3)NC2=O)c1` (stereo partly drawn) [Example 2314] ({CH2CO}-[Thr(3ξ)]Y(Carboxymethyl)D[Phe(3-Me)]Y[Bip]Y[NMeA][dL][Dab][Cha]V[Thr(3ξ)]C[dN][Aun]-OH; thioether N-14), the IC50 came to 21.7 nM.

In the case of `Cc1cccc(C[C@@H]2NC(=O)[C@H](CC(=O)O)NC(=O)[C@H](Cc3ccc(OCC(=O)O)cc3)NC(=O)[C@H](C(C)O)NC(=O)CSC[C@@H](C(=O)N[C@H](CC(N)=O)C(=O)NCCCCCCCCCCC(=O)O)NC(=O)[C@H](C(C)O)NC(=O)[C@H](C(C)C)NC(=O)[C@H](CC3CCCCC3)NC(=O)[C@H](CCN)NC(=O)[C@@H](CC(C)C)NC(=O)[C@H](C)N(C)C(=O)[C@H](CCCNC(N)=O)NC(=O)[C@H](Cc3ccc(-c4ccccc4)cc3)NC(=O)[C@H](Cc3ccccc3)NC2=O)c1` (stereo partly drawn) [Example 2315] ({CH2CO}-[Thr(3ξ)]Y(Carboxymethyl)D[Phe(3-Me)]F[Bip][Cit][NMeA][dL][Dab][Cha]V[Thr(3ξ)]C[dN][Aun]-OH; thioether N-14), the IC50 stood at 9.7 nM.

Regarding `CC(=O)NCCCC[C@@H]1NC(=O)[C@H](Cc2ccc(-c3ccccc3)cc2)NC(=O)[C@H](C(C)C)NC(=O)[C@H](Cc2c[nH]c3ccccc23)NC(=O)[C@H](CC(=O)O)NC(=O)[C@H](Cc2ccc(OCC(=O)O)cc2)NC(=O)[C@H](Cc2ccc(OCC(=O)O)cc2)NC(=O)CSC[C@@H](C(=O)NCCOCCOCC(=O)NCCCCCCCCCCC(=O)O)NC(=O)[C@H](CCO)NC(=O)[C@H](C(C)C)NC(=O)[C@H](CC2CCCCC2)NC(=O)[C@H](CCN)NC(=O)[C@@H](CC(C)C)NC(=O)[C@H](C)N(C)C1=O` [Example 2316] ({CH2CO}-Y(Carboxymethyl)Y(Carboxymethyl)DWV[Bip]K(Ac)[NMeA][dL][Dab][Cha]V[hSer]C[AEEA][Aun]-OH; thioether N-14), the IC50 was 11.3 nM.

As for `Cc1cccc(C[C@@H]2NC(=O)[C@H](CC(=O)O)NC(=O)[C@H](Cc3ccc(C(=O)O)cc3)NC(=O)[C@H](Cc3ccc(OCC(=O)O)cc3)NC(=O)CSC[C@@H](C(=O)NCCOCCOCC(=O)NCCCCCCCCCCC(=O)O)NC(=O)[C@H](CCO)NC(=O)[C@H](C(C)C)NC(=O)[C@H](CC3CCCCC3)NC(=O)[C@H](CCN)NC(=O)[C@@H](CC(C)C)NC(=O)[C@H](C)N(C)C(=O)[C@H](CCCNC(N)=O)NC(=O)[C@H](Cc3ccc(-c4ccccc4)cc3)NC(=O)[C@H](C(C)C)NC2=O)c1` [Example 2317] ({CH2CO}-Y(Carboxymethyl)[Phe(4-COOH)]D[Phe(3-Me)]V[Bip][Cit][NMeA][dL][Dab][Cha]V[hSer]C[AEEA][Aun]-OH; thioether N-14), the IC50 worked out at 8.9 nM.

Take `Cc1cccc(C[C@@H]2NC(=O)[C@H](CC(=O)O)NC(=O)[C@H](Cc3ccc(OCC(=O)O)cc3)NC(=O)[C@H](CCCNC(=N)N)NC(=O)CSC[C@@H](C(=O)NCCOCCOCC(=O)NCCCCCCCCCCC(=O)O)NC(=O)[C@H](C(C)O)NC(=O)[C@H](C(C)C)NC(=O)[C@H](CC3CCCCC3)NC(=O)[C@H](CCN)NC(=O)[C@@H](CC(C)C)NC(=O)[C@H](C)N(C)C(=O)[C@H](CCCNC(N)=O)NC(=O)[C@H](Cc3ccc(-c4ccccc4)cc3)NC(=O)[C@H](C(C)C)NC2=O)c1` (stereo partly drawn) [Example 2318] ({CH2CO}-RY(Carboxymethyl)D[Phe(3-Me)]V[Bip][Cit][NMeA][dL][Dab][Cha]V[Thr(3ξ)]C[AEEA][Aun]-OH; thioether N-14): the 50% inhibitory concentration (IC50) stood at 7.8 nM.

Turning to `CC(C)C[C@H]1NC(=O)[C@H](C)N(C)C(=O)[C@H](CCCNC(N)=O)NC(=O)[C@H](Cc2ccc(-c3ccccc3)cc2)NC(=O)[C@H](C(C)C)NC(=O)[C@H](Cc2c[nH]c3ccccc23)NC(=O)[C@H](CC(=O)O)NC(=O)[C@H](Cc2ccc(OCC(=O)O)cc2)NC(=O)[C@H](Cc2ccc(OCC(=O)O)cc2)NC(=O)CSC[C@@H](C(=O)NCCOCCOCC(=O)NCCCCCCCCCCC(=O)O)NC(=O)[C@H](CCO)NC(=O)[C@H](C(C)C)NC(=O)[C@H](CC2CCCCC2)NC(=O)[C@H](CCN)NC1=O` [Example 2319] ({CH2CO}-Y(Carboxymethyl)Y(Carboxymethyl)DWV[Bip][Cit][NMeA][dL][Dab][Cha]V[hSer]C[AEEA][Aun]-OH; thioether N-14), the IC50 came out at 15.6 nM.

On to `Cc1cccc(C[C@@H]2NC(=O)[C@H](CC(=O)O)NC(=O)[C@H](Cc3ccc(OCC(=O)O)cc3)NC(=O)[C@H](C(C)O)NC(=O)CSC[C@@H](C(=O)NCCOCCOCC(=O)NCCCCCCCCCCC(=O)O)NC(=O)[C@H](C(C)O)NC(=O)[C@H](C(C)C)NC(=O)[C@H](CC3CCCCC3)NC(=O)[C@H](CCN)NC(=O)[C@@H](CC(C)C)NC(=O)[C@H](C)N(C)C(=O)[C@H](CCCNC(N)=O)NC(=O)[C@H](Cc3ccc(-c4ccccc4)cc3)NC(=O)[C@H](C(C)C)NC2=O)c1` (stereo partly drawn) [Example 2320] ({CH2CO}-[Thr(3ξ)]Y(Carboxymethyl)D[Phe(3-Me)]V[Bip][Cit][NMeA][dL][Dab][Cha]V[Thr(3ξ)]C[AEEA][Aun]-OH; thioether N-14), for which the IC50 was determined as 7.1 nM.

On to `CC(=O)NCCCC[C@@H]1NC(=O)[C@H](Cc2ccc(-c3ccccc3)cc2)NC(=O)[C@H](C(C)C)NC(=O)[C@H](Cc2c[nH]c3ccccc23)NC(=O)[C@H](CC(=O)O)NC(=O)[C@H](Cc2ccc(OCC(=O)O)cc2)NC(=O)[C@H](Cc2ccc(OCC(=O)O)cc2)NC(=O)CSC[C@@H](C(=O)NCCOCCOCC(=O)NCCCCCCCCCCC(=O)O)NC(=O)[C@H](C(C)O)NC(=O)[C@H](C(C)C)NC(=O)[C@H](CC2CCCCC2)NC(=O)[C@H](CCN)NC(=O)[C@@H](CC(C)C)NC(=O)[C@H](C)N(C)C1=O` (stereo partly drawn) [Example 2321] ({CH2CO}-Y(Carboxymethyl)Y(Carboxymethyl)DWV[Bip]K(Ac)[NMeA][dL][Dab][Cha]V[Thr(3ξ)]C[AEEA][Aun]-OH; thioether N-14), for which the IC50 was 5.8 nM.
